Laboratory results taken from patent publication US20230125667A1, “NOVEL TDZD ANALOGS AS AGENTS THAT DELAY, PREVENT, OR REVERSE AGE-ASSOCIATED DISEASES AND AS ANTI-CANCER AND ANTILEUKEMIC AGENTS” (United States Government as represented by the Department …, priority 2020, published 2023).
Where two headings read alike, the source gives them in different places.

System: MV4-11 cell line (myelomonocytic leukemia)
Details: MV4-11 cells
[1] = Ibuprofen-TDZD analogs (Table 3)

Row | Structure (SMILES) | LD50, 7AAD (μM) 24 h [1] | LD50, Alamar blue (μM) 24 h [1] | LD50, YOPRO (μM) 24 h [1] | LD50, 7AAD (μM) 24 h (MMB-TDZD analogs (Table 2)) | LD50, Alamar blue (μM) 24 h (MMB-TDZD analogs (Table 2)) | LD50, YOPRO (μM) 24 h (MMB-TDZD analogs (Table 2)) | LD50 (values in text)
1 | CC(C)Cc1ccc(C(C)C(=O)NCc2ccc(Cn3c(=O)sn(CCCCl)c3=O)cc2)cc1 (stereo not shown) [BSK-236] | 1.75 µM | 2.50 µM | 1.77 µM | – | – | – | –
2 | CC(C)Cc1ccc(C(C)C(=O)NCc2ccc(Cn3c(=O)sn(-c4ccc(Cl)cc4)c3=O)cc2)cc1 (stereo not shown) [BSK-266] | 10.7 µM | 12.00 µM | 10.6 µM | – | – | – | –
3 | CC(C)Cc1ccc(C(C)C(=O)NCc2ccc(Cn3c(=O)sn(CCI)c3=O)cc2)cc1 (stereo not shown) [BSK-265] | 2.71 µM | 2.50 µM | 2.87 µM | – | – | – | –
4 | C=C1C(=O)O[C@H]2[C@H]1CC/C(COC(=O)NCc1ccc(Cn3c(=O)sn(-c4ccc(Cl)cc4)c3=O)cc1)=C\CC[C@@]1(C)O[C@@H]21 [BSK-268] | – | – | – | 0.55 µM | 0.63 µM | 0.68 µM | 130 nM
5 | Cn1sc(=O)n(Cc2ccccc2)c1=O [TDZD-8, 4-benzyl, 2-methyl, 1,2,4-thiadiazolidine, 3,5 dione, reference compound] | 3.61 µM | 4.5 µM | 3.29 µM | 3.61 µM | 4.5 µM | 3.29 µM | –
6 | COc1ccc(-n2sc(=O)n(Cc3ccc(CNC(=O)C(C)c4ccc(CC(C)C)cc4)cc3)c2=O)cc1 (stereo not shown) [BSK-270] | 8.21 µM | 9.00 µM | 6.14 µM | – | – | – | –
7 | CC(C)Cc1ccc(C(C)C(=O)NCc2ccc(Cn3c(=O)sn(-c4ccccc4)c3=O)cc2)cc1 (stereo not shown) [BSK-239] | 4.91 µM | 4.70 µM | 4.24 µM | – | – | – | –
8 | CCCCn1sc(=O)n(Cc2ccc(CNC(=O)C(C)c3ccc(CC(C)C)cc3)cc2)c1=O (stereo not shown) [BSK-238] | 11.2 µM | 10.00 µM | 10.9 µM | – | – | – | –
9 | CCCCCn1sc(=O)n(Cc2ccc(CNC(=O)C(C)c3ccc(CC(C)C)cc3)cc2)c1=O (stereo not shown) [BSK-235] | 2.54 µM | 3.50 µM | 3.2 µM | – | – | – | –
10 | C=C1C(=O)O[C@H]2[C@H]1CC/C(COC(=O)NCc1ccc(Cn3c(=O)sn(-c4ccc(C#N)cc4)c3=O)cc1)=C\CC[C@@]1(C)O[C@@H]21 [BSK-263] | – | – | – | 0.23 µM | 0.75 µM | 0.13 µM | –
11 | CC(C)Cc1ccc(C(C)C(=O)NCc2ccc(Cn3c(=O)sn(-c4ccc(C#N)cc4)c3=O)cc2)cc1 (stereo not shown) [BSK-267] | 14.8 µM | 12.00 µM | 17.3 µM | – | – | – | –
12 | CC(C)Cc1ccc(C(C)C(=O)NCc2ccc(Cn3c(=O)sn(CCCI)c3=O)cc2)cc1 (stereo not shown) [BSK-260] | 1.42 µM | 1.49 µM | 1.48 µM | – | – | – | –
